Test results as given in PMC10861852, “Loss of activation by GABA in vertebrate delta ionotropic glutamate receptors” (Proceedings of the National Academy of Sciences of the …, 2024).
Positions count from the first letter of the chain named.

What was measured:
RatGluD2^9x = target: T1, RatGluD2^9x (Rattus norvegicus, UniProt Q63226, A686S/D753Q/K694R/N720P/N763K/P806D/Q786M/R787V/Y613F); assay: Two-electrode voltage clamp, responses to ligands in mutant-expressing oocytes; type: cell-based; conditions: ligands 30 mM
T1 construct: expressed in transfected cells; host or cells: Xenopus laevis oocytes injected with mRNA
T1 sequence (Q63226 24-1007 Y613F/A686S/K694R/N720P/D753Q/N763K/Q786M/R787V/P806D): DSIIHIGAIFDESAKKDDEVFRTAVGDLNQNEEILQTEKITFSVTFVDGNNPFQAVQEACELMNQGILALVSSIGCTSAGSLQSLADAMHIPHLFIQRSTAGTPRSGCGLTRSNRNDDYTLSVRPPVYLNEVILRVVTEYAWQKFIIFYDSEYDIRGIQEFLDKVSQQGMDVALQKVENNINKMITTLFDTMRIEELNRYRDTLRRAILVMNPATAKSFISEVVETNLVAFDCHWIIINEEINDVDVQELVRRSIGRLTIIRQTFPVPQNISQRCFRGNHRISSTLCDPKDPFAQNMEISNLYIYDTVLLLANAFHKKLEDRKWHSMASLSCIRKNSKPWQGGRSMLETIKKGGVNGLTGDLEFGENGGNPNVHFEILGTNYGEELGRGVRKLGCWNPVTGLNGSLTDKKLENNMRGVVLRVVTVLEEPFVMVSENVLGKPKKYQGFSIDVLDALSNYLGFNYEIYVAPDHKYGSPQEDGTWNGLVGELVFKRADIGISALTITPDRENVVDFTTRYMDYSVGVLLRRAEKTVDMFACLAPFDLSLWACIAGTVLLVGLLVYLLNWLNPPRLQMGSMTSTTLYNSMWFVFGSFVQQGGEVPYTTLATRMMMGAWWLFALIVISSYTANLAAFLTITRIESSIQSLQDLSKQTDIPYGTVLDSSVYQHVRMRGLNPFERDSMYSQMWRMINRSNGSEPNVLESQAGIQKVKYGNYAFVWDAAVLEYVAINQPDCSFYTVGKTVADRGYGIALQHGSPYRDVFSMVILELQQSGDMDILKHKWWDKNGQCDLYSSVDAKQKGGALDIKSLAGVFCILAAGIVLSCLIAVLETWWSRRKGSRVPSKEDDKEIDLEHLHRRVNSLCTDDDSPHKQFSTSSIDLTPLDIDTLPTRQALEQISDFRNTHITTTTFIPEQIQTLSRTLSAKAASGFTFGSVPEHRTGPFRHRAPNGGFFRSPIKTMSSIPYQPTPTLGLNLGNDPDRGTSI
Excerpt: (§1) If the 10 mutations discussed above drove the loss of function in vertebrate delta iGluRs, one might expect that the latter could be “reawakened” via active invertebrate delta iGluR-like mutations here. We therefore engineered mutant RatGluD2 iGluRs to contain at these positions the equivalent residues from starfish delta iGluRs. These mutants were RatGluD2^5x, containing Y613F, A686S, K694R, N720P, and P806D substitutions (pink in Fig. 6A), and RatGluD2^9x, additionally containing N763K, D753Q, Q786M, and R787V (cyan in Fig. 6A).
(§2) Fig. 6. AcaGluD-like mutations alter RatGluD2 receptor function. (A) D-serine bound RatGluD2 from X-ray structure PDB:2v3u ([13]). Selected amino acid residues are indicated, colored, shown as sticks, and labeled 5×, 9×, 10×, and/or Lc according to the multiple mutants they were incorporated into. 10× mutant included 10×, 9×, and 5× positions. 9× included 9× and 5×. 5× included only 5×. […] (B–E) Example current responses to different neurotransmitter ligands (30 mM) and to pore blocker pentamidine (Pent, 100 μM) in oocytes expressing indicated RatGluD2 mutants. The dashed line indicates zero current baseline. (F) Individual (dots) and mean (columns) responses to ligands in oocytes expressing indicated RatGluD2 mutants (n = 4 to 5).

RatGluD2^5x = target: T2, RatGluD2^5x (Rattus norvegicus, UniProt Q63226, A686S/K694R/N720P/P806D/Y613F); assay: as above; type: cell-based; conditions: ligands 30 mM
T2 construct: expressed in transfected cells; host or cells: Xenopus laevis oocytes injected with mRNA
T2 sequence (Q63226 24-1007 Y613F/A686S/K694R/N720P/P806D): T1 sequence (Q63226 24-1007 Y613F/A686S/K694R/N720P/D753Q/N763K/Q786M/R787V/P806D) with Q730D, K740N, M763Q, V764R
Excerpt: as §1, §2

DanGluD2A^Lc = assay: Two-electrode voltage clamp, inhibition of constitutive current in oocytes; type: cell-based, Danio rerio; conditions: lurcher-mutant receptor

| Structure (SMILES) | current response to ligand (RatGluD2^9x) | current response to ligand (RatGluD2^5x) | effect on constitutive currents (DanGluD2A^Lc) | inactivation of constitutive current relative to D-serine (DanGluD2A^Lc; n = 4) [%] |
| --- | --- | --- | --- | --- |
| N[C@H](CO)C(=O)O [D-serine] | no responses | no responses | inactivated |  |
| NCC(=O)O [glycine] | no responses | no responses | inactivated |  |
| NCCCC(=O)O [GABA, γ-aminobutyric acid] | no responses | no responses |  | 58 ± 8 |
